Here are results for eight compounds from ChEMBL document CHEMBL3137667, “[Drug-induced liver injury; fourteenth updated edition of the bibliographic database of liver injuries and related drugs]” (Gastroenterol Clin Biol, 2004).

Where a SMILES comes first, the peptide text is derived from it. Bridges are numbered along the chain shown (N, C = ends). [ ]: non-standard residue; d: D form. The star is where a group is joined. Threoninol(2S,3R) = C[C@@H](O)[C@H](CO)N*

For series [1] the following is noted: human.
The conditions of series [2]: human. This is another data set of the same source.
The conditions of series [3]: human, serum, 4383 h.
For series [4] the following is noted: human. This is another data set of the same source.
The conditions of series [5]: human. The source holds these as a separate data set.
For series [6] the following is noted: human, serum.
The conditions of series [7]: human, serum. The source holds these as a separate data set.
A short description of series [8]: Times to onset, minimal and maximal, observed in the indexed observations. [column 'DELAI' in source]. Particulars: human.
Series [9] in a line: Proposed mechanism(s) of liver damage. [column 'MEC' in source]. Particulars: human.
The conditions of series [10]: human. The source holds these as a separate data set.
The conditions of series [11]: human. This is another data set of the same source.
A short description of series [12]: Highest frequency of acute liver toxicity observed during clinical trials, expressed as a percentage. [column '% AIGUE' in source]. The settings on record: human.
Series [13] in a line: Highest frequency of moderate liver toxicity observed during clinical trials, expressed as a percentage. [column '% BIOL' in source]. Particulars: human.
For series [14] the following is noted: human. This is another data set of the same source.
Series [15] is described as follows: Presence of at least one case with successful reintroduction. [column 'REINT' in source]. The settings on record: human.
Series [16] is described as follows: Comments (NB not yet translated). [column 'COMMENTAIRES' in source]. The settings on record: human.
For series [17] the following is noted: human. The source holds these as a separate data set.
The conditions of series [18]: human. This is another data set of the same source.
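Wherever Hepatotoxicity (association with vascular disease) is given: count of indexed literature references reporting vascular liver injury in humans, e.g. peliosis hepatitis, hepatic veno-occlusive disease or Budd-Chiari syndrome.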
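Wherever Hepatotoxicity (benign tumour) is given: value is a count of indexed literature references citing a benign tumour confirmed by histopathology.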
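Wherever Hepatotoxicity (choleostasis) is given: human cholestatic liver injury, shown by histopathology or by peak ALT or AST elevation over alkaline phosphatase ratio below 2, value counts indexed literature reports.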
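Wherever Hepatotoxicity (chronic liver disease) is given: chronic liver injury confirmed by histopathology or persistently raised serum aminotransferase activity beyond 6 months, value given as the count of indexed literature references.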
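Wherever Hepatotoxicity (cirrhosis) is given: value is a count of indexed literature references reporting cirrhosis confirmed by histopathology.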
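Wherever Hepatotoxicity (cytolytic) is given: human cytolytic liver injury, shown by histopathology or by a ratio above 5 of peak ALT or AST elevation to alkaline phosphatase elevation, value counts indexed references.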
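Wherever Hepatotoxicity (granulomatous hepatitis) is given: value is a count of indexed literature references reporting granulomatous liver disease confirmed by histopathology.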
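Wherever Hepatotoxicity (malignant tumour) is given: malignant tumour confirmed by histopathology, value gives the count of indexed literature references reporting it.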
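Wherever Hepatotoxicity (severe hepatitis) is given: human clinical data: severe hepatitis, meaning potentially life-threatening liver failure or clinically observed cases, the value counts how many indexed literature references report it.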
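Wherever Hepatotoxicity (steatosis) is given: steatosis confirmed by histopathology, value is the count of indexed references.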

Regarding `NNc1nnc(NN)c2ccccc12` [DIHYDRALAZINE], the “Hepatotoxicity (steatosis)” value in series [1] is 1. The “Hepatotoxicity (association with vascular disease)” value in [2] turned out to be 0. For the same compound, the “Hepatotoxicity (chronic liver disease)” value in series [3] came to 4. In [4], the “Hepatotoxicity (severe hepatitis)” value amounted to 1. In addition, the “Hepatotoxicity (malignant tumour)” value in series [5] came out at 0. The “Hepatotoxicity (acute)” value was determined as 21 in [6] and 0.1% in series [12]. For the same compound, the entries for the “Hepatotoxicity (moderate)” value in series [7] and in series [13] were 0 and 0%, respectively. Also, the “Hepatotoxicity (time to onset)” value in series [8] was 2 days - 3 years. Besides, the “Hepatotoxicity (mechanism)” value in [9] is recorded as “Allergic”. For the same compound, the “Hepatotoxicity (benign tumour)” value in series [10] is 0. In addition, the “Hepatotoxicity (cytolytic)” value in [11] was determined as 17. Besides, in series [14], the “Hepatotoxicity (choleostasis)” value worked out at 5. Further, in [15], the “Hepatotoxicity (successful reintroduction)” value is on record as “yes”. Besides, in series [16], the “Hepatotoxicity (comment)” value was “AC_ANTI-MF/-M/-N/-CYP1A2”. The “Hepatotoxicity (cirrhosis)” value in series [17] was found to be 0. The “Hepatotoxicity (granulomatous hepatitis)” value in series [18] came to 0.

In the case of `COc1ccc(Cc2nccc3cc(OC)c(OC)cc23)cc1OC` [PAPAVERINE], the “Hepatotoxicity (steatosis)” value in series [1] was 0. The “Hepatotoxicity (association with vascular disease)” value in [2] came to 0. Also, the “Hepatotoxicity (chronic liver disease)” value in series [3] is 4. For the same compound, the “Hepatotoxicity (severe hepatitis)” value in [4] was found to be 0. Also, the “Hepatotoxicity (malignant tumour)” value in series [5] was 0. The “Hepatotoxicity (acute)” value is reported as 9 in [6] and 3.3% in series [12]. Moreover, the “Hepatotoxicity (moderate)” value in series [7] is on record as 11; in series [13] it was 53%. For the same compound, the “Hepatotoxicity (time to onset)” value in series [8] is 1 day - 11 years. Besides, in series [9], the “Hepatotoxicity (mechanism)” value is recorded as “Allergic, Toxic Metabolite”. Also, the “Hepatotoxicity (benign tumour)” value in series [10] is on record as 0. The “Hepatotoxicity (cytolytic)” value in [11] came out at 7. Also, the “Hepatotoxicity (choleostasis)” value in series [14] was 6. For the same compound, the “Hepatotoxicity (successful reintroduction)” value in series [15] is on record as “yes”. In [16], the “Hepatotoxicity (comment)” value is listed as “AC_ANTI-ADN/-N PERICHOLANGITE”. For the same compound, in series [17], the “Hepatotoxicity (cirrhosis)” value is given as 3. Further, in [18], the “Hepatotoxicity (granulomatous hepatitis)” value is 1.

Take `C[C@@H](O)[C@H](CO)NC(=O)[C@@H]1CSSC[C@H](NC(=O)[C@H](N)Cc2ccccc2)C(=O)N[C@@H](Cc2ccccc2)C(=O)N[C@H](Cc2c[nH]c3ccccc23)C(=O)N[C@@H](CCCCN)C(=O)N[C@@H]([C@@H](C)O)C(=O)N1` (H-[dF]CF[dW]KTC-{Threoninol(2S,3R)}; disulfide 2-7): in series [1], the “Hepatotoxicity (steatosis)” value worked out at 0. Besides, the “Hepatotoxicity (association with vascular disease)” value in series [2] came to 0. For the same compound, the “Hepatotoxicity (chronic liver disease)” value in series [3] was 0. In addition, the “Hepatotoxicity (severe hepatitis)” value in series [4] was 1. Besides, the “Hepatotoxicity (malignant tumour)” value in series [5] is given as 0. The results for the “Hepatotoxicity (acute)” value in series [6] and in series [12] were 3 and 0%, respectively. For the same compound, the “Hepatotoxicity (moderate)” value in series [7] amounted to 8; in series [13] it was 17.6%. In [8], the “Hepatotoxicity (time to onset)” value was 1 day - 14 months. In addition, the “Hepatotoxicity (mechanism)” value in [9] is listed as “Dose-dependant”. Further, the “Hepatotoxicity (benign tumour)” value in series [10] is given as 0. Further, in [11], the “Hepatotoxicity (cytolytic)” value was found to be 3. Besides, in series [14], the “Hepatotoxicity (choleostasis)” value is 1. Besides, the “Hepatotoxicity (successful reintroduction)” value in series [15] is given as “yes”. Also, in series [16], the “Hepatotoxicity (comment)” value was “BOUE_BILIAIRE LITHIASE”. The “Hepatotoxicity (cirrhosis)” value in [17] worked out at 0. Besides, in series [18], the “Hepatotoxicity (granulomatous hepatitis)” value is reported as 0.

On to `CCc1oc2ccccc2c1C(=O)c1ccc(O)cc1` [BENZARONE], for which, in series [1], the “Hepatotoxicity (steatosis)” value turned out to be 0. The “Hepatotoxicity (association with vascular disease)” value in series [2] stood at 0. Further, the “Hepatotoxicity (chronic liver disease)” value in series [3] turned out to be 3. Moreover, the “Hepatotoxicity (severe hepatitis)” value in [4] is recorded as 2. The “Hepatotoxicity (malignant tumour)” value in [5] is reported as 0. In addition, the “Hepatotoxicity (acute)” value is on record as 5 in series [6] and 0% in series [12]. Besides, the “Hepatotoxicity (moderate)” value in series [7] is given as 0; in series [13], 0%. The “Hepatotoxicity (time to onset)” value in series [8] is 2 weeks - 2 years. In addition, the “Hepatotoxicity (mechanism)” value in series [9] is “Allergic”. Besides, the “Hepatotoxicity (benign tumour)” value in series [10] is 0. The “Hepatotoxicity (cytolytic)” value in series [11] amounted to 3. For the same compound, in [14], the “Hepatotoxicity (choleostasis)” value is listed as 0. Besides, the “Hepatotoxicity (successful reintroduction)” value in [15] is given as “yes”. In addition, the “Hepatotoxicity (comment)” value in series [16] is on record as “AC_ANTI-ML/-N”. Also, in series [17], the “Hepatotoxicity (cirrhosis)” value is 1. In [18], the “Hepatotoxicity (granulomatous hepatitis)” value came to 0.

Consider `CC1(C)S[C@@H]2[C@H](NC(=O)[C@H](N)c3ccc(O)cc3)C(=O)N2[C@H]1C(=O)O.O=C(O)[C@H]1/C(=C/CO)O[C@@H]2CC(=O)N21`, for which, in series [1], the “Hepatotoxicity (steatosis)” value is 7. The “Hepatotoxicity (association with vascular disease)” value in [2] came to 0. Moreover, the “Hepatotoxicity (chronic liver disease)” value in series [3] is 0. For the same compound, the “Hepatotoxicity (severe hepatitis)” value in [4] worked out at 8. In series [5], the “Hepatotoxicity (malignant tumour)” value is 0. Further, the “Hepatotoxicity (acute)” value in series [6] is listed as 74; in [12], 0.3%. The “Hepatotoxicity (moderate)” value was found to be 15 in series [7] and 15% in [13]. The “Hepatotoxicity (time to onset)” value in series [8] is recorded as below 1 day - 15 weeks. For the same compound, in series [9], the “Hepatotoxicity (mechanism)” value is “Allergic”. Also, in series [10], the “Hepatotoxicity (benign tumour)” value came to 0. Further, the “Hepatotoxicity (cytolytic)” value in [11] is listed as 21. For the same compound, the “Hepatotoxicity (choleostasis)” value in series [14] is on record as 61. In addition, the “Hepatotoxicity (successful reintroduction)” value in series [15] is “yes”. Further, in series [16], the “Hepatotoxicity (comment)” value is reported as “CHOLANGITE #CBP AC_ANTI-N RC/ERYTHROMYCINE”. Moreover, the “Hepatotoxicity (cirrhosis)” value in [17] was found to be 1. In series [18], the “Hepatotoxicity (granulomatous hepatitis)” value is 6.

Take `Cc1ccc(-c2nc3ccc(C)cn3c2CC(=O)N(C)C)cc1` [ZOLPIDEM]: the “Hepatotoxicity (steatosis)” value in series [1] was 0. In addition, the “Hepatotoxicity (association with vascular disease)” value in [2] was determined as 0. In addition, the “Hepatotoxicity (chronic liver disease)” value in series [3] is listed as 0. In addition, the “Hepatotoxicity (severe hepatitis)” value in series [4] stood at 0. In addition, the “Hepatotoxicity (malignant tumour)” value in [5] was determined as 0. The “Hepatotoxicity (acute)” value in series [6] is given as 2; in [12] it was 0%. The “Hepatotoxicity (moderate)” value in [7] turned out to be 3; in series [13] it was 0.4%. Also, in series [8], the “Hepatotoxicity (time to onset)” value turned out to be 1 day - 3 days. Moreover, the “Hepatotoxicity (mechanism)” value in [9] was “Dose-dependant”. Besides, the “Hepatotoxicity (benign tumour)” value in [10] is 0. The “Hepatotoxicity (cytolytic)” value in [11] turned out to be 2. In [14], the “Hepatotoxicity (choleostasis)” value was 0. For the same compound, in series [15], the “Hepatotoxicity (successful reintroduction)” value is “yes”. Also, in series [16], the “Hepatotoxicity (comment)” value is listed as “ENCEPHALOPATHIE”. The “Hepatotoxicity (cirrhosis)” value in series [17] came to 0. For the same compound, the “Hepatotoxicity (granulomatous hepatitis)” value in [18] stood at 0.

`O=C(O)CCCc1ccc(N(CCCl)CCCl)cc1` [CHLORAMBUCIL]: the “Hepatotoxicity (steatosis)” value in series [1] was determined as 0. In series [2], the “Hepatotoxicity (association with vascular disease)” value turned out to be 0. The “Hepatotoxicity (chronic liver disease)” value in [3] was 1. Besides, in series [4], the “Hepatotoxicity (severe hepatitis)” value is reported as 1. Also, in series [5], the “Hepatotoxicity (malignant tumour)” value was 1. Moreover, the “Hepatotoxicity (acute)” value in series [6] worked out at 7; in series [12], 4.8%. The “Hepatotoxicity (moderate)” value in series [7] is 1; in series [13] it was 5.3%. Moreover, the “Hepatotoxicity (time to onset)” value in series [8] came out at 2 weeks - 25 months. For the same compound, in series [9], the “Hepatotoxicity (mechanism)” value is on record as “Allergic”. In series [10], the “Hepatotoxicity (benign tumour)” value was determined as 0. Besides, the “Hepatotoxicity (cytolytic)” value in series [11] worked out at 4. The “Hepatotoxicity (choleostasis)” value in series [14] was 3. The “Hepatotoxicity (successful reintroduction)” value in series [15] is given as “yes”. For the same compound, the “Hepatotoxicity (comment)” value in series [16] is “PERICHOLANGITE REACTIVATION_HVB”. In addition, the “Hepatotoxicity (cirrhosis)” value in series [17] turned out to be 1. In series [18], the “Hepatotoxicity (granulomatous hepatitis)” value came out at 0.

Turning to `NC1=NC(=O)C(c2ccccc2)O1` (centres undefined) [PEMOLINE], in series [1], the “Hepatotoxicity (steatosis)” value is given as 1. Also, the “Hepatotoxicity (association with vascular disease)” value in series [2] came to 0. Besides, the “Hepatotoxicity (chronic liver disease)” value in [3] was determined as 0. The “Hepatotoxicity (severe hepatitis)” value in [4] is recorded as 10. For the same compound, the “Hepatotoxicity (malignant tumour)” value in series [5] is 0. Also, the “Hepatotoxicity (acute)” value in series [6] is recorded as 16; in [12], 0.3%. Further, the “Hepatotoxicity (moderate)” value in series [7] came out at 4; in [13] it was 2%. In series [8], the “Hepatotoxicity (time to onset)” value stood at 3 days - 3 years. Besides, the “Hepatotoxicity (mechanism)” value in series [9] is on record as “Allergic, Dose-dependant”. In series [10], the “Hepatotoxicity (benign tumour)” value was 0. In addition, the “Hepatotoxicity (cytolytic)” value in series [11] is 14. The “Hepatotoxicity (choleostasis)” value in series [14] is 0. Besides, the “Hepatotoxicity (successful reintroduction)” value in [15] was “yes”. In addition, the “Hepatotoxicity (comment)” value in series [16] is “AC_ANTI-MF/-N AGGRAVATION_HEPATITE_AUTOIMMUNE”. In addition, the “Hepatotoxicity (cirrhosis)” value in series [17] is given as 0. Moreover, in [18], the “Hepatotoxicity (granulomatous hepatitis)” value is 0.
